Assay results: PMC8696196 (RSC Advances, 2021)
pEC50: −log10 of the molar value.

Molecular target: H3N2 E119V (A/Moscow/10/99 background, E119V mutation in the neuraminidase gene)
Format: cell-based, influenza A virus
Details: read-out: EC50 H3N2 E119V

Row | SMILES | pEC50
1 | CCC(CC)O[C@@H]1C=C(C(=O)O)C[C@H](n2nncc2-c2cccc(N)c2)[C@H]1NC(C)=O [Compound 2j, (3R,4R,5S)-4-Acetamido-5-[5-(3-aminophenyl)-1H-1,2,3-triazol-1-yl]-3-(pentan-3-yloxy)cyclohex-1-ene-1-carboxylic acid] | < 4.00
2 | CCC(CC)O[C@@H]1C=C(C(=O)O)C[C@H](N)[C@H]1NC(C)=O [OSC, oseltamivir carboxylate, reference compound] | < 4.00
